Test [1] concerns the target T1, Serine racemase (Homo sapiens, UniProt Q9GZT4).
T1 sequence (Q9GZT4 whole entry): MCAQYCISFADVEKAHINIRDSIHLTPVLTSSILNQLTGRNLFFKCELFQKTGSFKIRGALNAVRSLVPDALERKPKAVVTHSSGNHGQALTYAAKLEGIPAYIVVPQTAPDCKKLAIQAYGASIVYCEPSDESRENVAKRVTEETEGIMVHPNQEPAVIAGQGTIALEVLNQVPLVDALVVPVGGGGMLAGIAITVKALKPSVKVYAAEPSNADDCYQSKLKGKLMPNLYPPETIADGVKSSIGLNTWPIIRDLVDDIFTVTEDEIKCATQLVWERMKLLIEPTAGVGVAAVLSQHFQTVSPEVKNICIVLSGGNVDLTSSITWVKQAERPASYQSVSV
The experiment in a line: Binding affinity to serine recemase (unknown origin).

Test [2] deals with T2, Serine racemase (Homo sapiens) (UniProt Q9GZT4).
T2 sequence (whole entry): T1 sequence (Q9GZT4 whole entry)
The test is described as follows: Inhibition of full length human recombinant serine recemase C2DC6D mutant expressed in Escherichia coli BL21 (DE3) assessed as D-serine production at 1 mM after 10 mins by Saccharomyces cerevisiae Dsd1SC based D-serine detection assay.

Test [3] addresses Serine racemase (Homo sapiens, UniProt Q9GZT4). The test is described as follows: Inhibition of full length human recombinant serine recemase C2DC6D mutant expressed in Escherichia coli BL21 (DE3) assessed as D-serine production after 10 mins by Saccharomyces cerevisiae Dsd1SC based D-serine detection assay.

Structures are written as SMILES.

Here are results for three compounds from ChEMBL document CHEMBL3352134, “In silico and pharmacological screenings identify novel serine racemase inhibitors” (Bioorg Med Chem Lett, 2014).

The compound `NCC(=O)O` [GLYCINE] had a Ki at Serine racemase [1] of 366 µM.

For the compound `O=C(O)CC(=O)O` [MALONIC ACID], the affinity at Serine racemase [1] corresponds to a Ki of 33 µM. Besides, the inhibition in test [2] amounted to 59%. Besides, at Serine racemase [3], the IC50 was 1310 µM.

`N[C@H](C(=O)O)[C@@H](O)C(=O)O` showed a Ki at Serine racemase [1] of 11 µM.

By Ki is commonly meant a measure of affinity in units of concentration, obtained from inhibition or displacement. A high value points to lower affinity. What is called inhibition is the relative decrease from the control value, in per cent. What is called IC50 is the concentration that gives 50% inhibition.
